Results published in ChEMBL document CHEMBL1201862, “PubChem BioAssay data set” (2004).
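All cell lines were grown in 96-well plates and treated with compound for 48 hours. The concentration for 50% growth inhibition is given as GI50.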 Active and inactive are the calls of the source. Rule as the data show it: active = GI50 up to about 1.1 µM and inactive = higher.

Experiments:
Assay in all cases: NCI-60 cell line screen, 48 h
K562 = tested on: K562
SF-295 = tested on: SF-295
HOP-92 = tested on: HOP-92
A549 = tested on: A549
NCI-H23 = tested on: NCI-H23
SF-539 = tested on: SF-539
SNB-75 = tested on: SNB-75
MDA-N = tested on: MDA-N
SNB-19 = tested on: SNB-19
SW-620 = tested on: SW-620
MOLT-4 = tested on: MOLT-4
HCT-116 = tested on: HCT-116
MDA-MB-435 = tested on: MDA-MB-435
OVCAR-5 = tested on: OVCAR-5
MCF7 = tested on: MCF7
UACC-257 = tested on: UACC-257
HCC 2998 = tested on: HCC 2998
NCI-H522 = tested on: NCI-H522
RXF 393 = tested on: RXF 393
CCRF-CEM = tested on: CCRF-CEM
BT-549 = tested on: BT-549
OVCAR-4 = tested on: OVCAR-4
Malme-3M = tested on: Malme-3M
EKVX = tested on: EKVX
PC-3 = tested on: PC-3
HOP-62 = tested on: HOP-62
NCI-H226 = tested on: NCI-H226
COLO 205 = tested on: COLO 205
SR = tested on: SR
SN12C = tested on: SN12C
HCT-15 = tested on: HCT-15
U-251 = tested on: U-251
CAKI-1 = tested on: CAKI-1
ACHN = tested on: ACHN
SF-268 = tested on: SF-268
OVCAR-8 = tested on: OVCAR-8
UACC-62 = tested on: UACC-62
NCI-H460 = tested on: NCI-H460
786-0 = tested on: 786-0
MDA-MB-231 = tested on: MDA-MB-231
DU-145 = tested on: DU-145
KM12 = tested on: KM12
NCI/ADR-RES = tested on: NCI/ADR-RES
SK-MEL-28 = tested on: SK-MEL-28
RPMI-8226 = tested on: RPMI-8226
M14 = tested on: M14
A498 = tested on: A498
OVCAR-3 = tested on: OVCAR-3
SK-OV-3 = tested on: SK-OV-3
T47D = tested on: T47D
UO-31 = tested on: UO-31
TK-10 = tested on: TK-10
Hs-578T = tested on: Hs-578T
SK-MEL-2 = tested on: SK-MEL-2
SK-MEL-5 = tested on: SK-MEL-5
HT-29 = tested on: HT-29
HL-60 = tested on: HL-60
LOX IMVI = tested on: LOX IMVI
IGROV-1 = tested on: IGROV-1

SMILES: Cc1ccc(Nc2sc(C)cc2C#N)c([N+](=O)[O-])c1
- GI50 (K562): > 100 µM (inactive)
- GI50 (SF-295): > 100 µM (inactive)
- GI50 (HOP-92): 88.9 µM (inactive)
- GI50 (A549): > 100 µM (inactive)
- GI50 (NCI-H23): > 100 µM (inactive)
- GI50 (SF-539): > 100 µM (inactive)
- GI50 (SNB-75): > 100 µM (inactive)
- GI50 (MDA-N): > 100 µM (inactive)
- GI50 (SNB-19): > 100 µM (inactive)
- GI50 (SW-620): > 100 µM (inactive)
- GI50 (MOLT-4): > 100 µM (inactive)
- GI50 (HCT-116): > 100 µM (inactive)
- GI50 (MDA-MB-435): > 100 µM (inactive)
- GI50 (OVCAR-5): > 100 µM (inactive)
- GI50 (MCF7): > 100 µM (inactive)
- GI50 (UACC-257): > 100 µM (inactive)
- GI50 (HCC 2998): > 100 µM (inactive)
- GI50 (NCI-H522): > 100 µM (inactive)
- GI50 (RXF 393): 53.3 µM (inactive)
- GI50 (CCRF-CEM): 99.8 µM (inactive)
- GI50 (BT-549): > 100 µM (inactive)
- GI50 (OVCAR-4): > 100 µM (inactive)
- GI50 (Malme-3M): > 100 µM (inactive)
- GI50 (EKVX): > 100 µM (inactive)
- GI50 (PC-3): > 100 µM (inactive)
- GI50 (HOP-62): > 100 µM (inactive)
- GI50 (NCI-H226): > 100 µM (inactive)
- GI50 (COLO 205): > 100 µM (inactive)
- GI50 (SR): > 100 µM (inactive)
- GI50 (SN12C): > 100 µM (inactive)
- GI50 (HCT-15): 67.3 µM
- GI50 (U-251): > 100 µM (inactive)
- GI50 (CAKI-1): > 100 µM (inactive)
- GI50 (ACHN): > 100 µM (inactive)
- GI50 (SF-268): > 100 µM (inactive)
- GI50 (OVCAR-8): > 100 µM (inactive)
- GI50 (UACC-62): > 100 µM (inactive)
- GI50 (NCI-H460): > 100 µM (inactive)
- GI50 (786-0): > 100 µM (inactive)
- GI50 (MDA-MB-231): > 100 µM (inactive)
- GI50 (DU-145): > 100 µM (inactive)
- GI50 (KM12): 93.5 µM (inactive)
- GI50 (NCI/ADR-RES): 98.9 µM (inactive)
- GI50 (SK-MEL-28): > 100 µM (inactive)
- GI50 (RPMI-8226): > 100 µM (inactive)
- GI50 (M14): > 100 µM (inactive)
- GI50 (A498): > 100 µM (inactive)
- GI50 (OVCAR-3): > 100 µM (inactive)
- GI50 (SK-OV-3): > 100 µM (inactive)
- GI50 (T47D): > 100 µM (inactive)
- GI50 (UO-31): > 100 µM (inactive)

SMILES: O=CC1C(=O)Nc2nc3ccccc3n2C1c1ccccc1 (stereo not given)
- GI50 (K562): 4.37 µM (inactive)
- GI50 (SF-295): 20.9 µM (inactive)
- GI50 (HOP-92): 12.4 µM (inactive)
- GI50 (A549): 23.3 µM (inactive)
- GI50 (NCI-H23): 19.2 µM (inactive)
- GI50 (SF-539): 17.9 µM (inactive)
- GI50 (SNB-75): 5.75 µM (inactive)
- GI50 (SW-620): 17.8 µM (inactive)
- GI50 (MOLT-4): 0.258 µM (active)
- GI50 (HCT-116): 12.4 µM (inactive)
- GI50 (MDA-MB-435): 17.9 µM (inactive)
- GI50 (OVCAR-5): 25.2 µM (inactive)
- GI50 (MCF7): 10.6 µM (inactive)
- GI50 (TK-10): 28.6 µM (inactive)
- GI50 (UACC-257): 15 µM (inactive)
- GI50 (Hs-578T): 31.6 µM (inactive)
- GI50 (NCI-H522): 12.8 µM (inactive)
- GI50 (RXF 393): 0.183 µM (active)
- GI50 (SK-MEL-2): 17.3 µM (inactive)
- GI50 (SK-MEL-5): 14.6 µM (inactive)
- GI50 (CCRF-CEM): 4.38 µM (inactive)
- GI50 (BT-549): 14.1 µM (inactive)
- GI50 (OVCAR-4): 24.7 µM (inactive)
- GI50 (Malme-3M): 18.8 µM (inactive)
- GI50 (EKVX): 22.5 µM (inactive)
- GI50 (PC-3): 18.4 µM (inactive)
- GI50 (HOP-62): 5.06 µM (inactive)
- GI50 (NCI-H226): 17.1 µM (inactive)
- GI50 (HT-29): 20.4 µM (inactive)
- GI50 (COLO 205): 11.4 µM (inactive)
- GI50 (SN12C): 5.7 µM (inactive)
- GI50 (HCT-15): 15.1 µM
- GI50 (U-251): 14.4 µM (inactive)
- GI50 (CAKI-1): 21.1 µM (inactive)
- GI50 (ACHN): 17.3 µM (inactive)
- GI50 (SF-268): 12.1 µM (inactive)
- GI50 (HL-60): 20.6 µM (inactive)
- GI50 (OVCAR-8): 11.7 µM (inactive)
- GI50 (UACC-62): 15.7 µM (inactive)
- GI50 (NCI-H460): 29.4 µM (inactive)
- GI50 (LOX IMVI): 11.1 µM (inactive)
- GI50 (786-0): 12.4 µM (inactive)
- GI50 (MDA-MB-231): 15.4 µM (inactive)
- GI50 (DU-145): 12.7 µM (inactive)
- GI50 (KM12): 14.6 µM (inactive)
- GI50 (NCI/ADR-RES): 54.7 µM (inactive)
- GI50 (SK-MEL-28): 19.6 µM (inactive)
- GI50 (IGROV-1): 13.9 µM (inactive)
- GI50 (RPMI-8226): 16.3 µM (inactive)
- GI50 (M14): 16 µM (inactive)
- GI50 (A498): 14.3 µM (inactive)
- GI50 (OVCAR-3): 7.89 µM (inactive)
- GI50 (T47D): < 0.01 µM (active)
- GI50 (UO-31): 13.7 µM (inactive)
